Publication PMC9841523 (Journal of Medicinal Chemistry, 2022)

What was measured:
Experiment in all cases: KiNativ kinase panel
[1] = system: MARK2, MARK3; type: cell-based, human; details: 1 μM, MCF-7 Cells, Lys2
[2] = target: T1, MAP4K3 (Homo sapiens, UniProt Q8IVH8); type: cell-based; details: 1 μM, MCF-7 Cells
T1 construct: MCF7 cells were exposed to; endogenous in cells; host or cells: MCF7
T1 sequence (Q8IVH8 1-894): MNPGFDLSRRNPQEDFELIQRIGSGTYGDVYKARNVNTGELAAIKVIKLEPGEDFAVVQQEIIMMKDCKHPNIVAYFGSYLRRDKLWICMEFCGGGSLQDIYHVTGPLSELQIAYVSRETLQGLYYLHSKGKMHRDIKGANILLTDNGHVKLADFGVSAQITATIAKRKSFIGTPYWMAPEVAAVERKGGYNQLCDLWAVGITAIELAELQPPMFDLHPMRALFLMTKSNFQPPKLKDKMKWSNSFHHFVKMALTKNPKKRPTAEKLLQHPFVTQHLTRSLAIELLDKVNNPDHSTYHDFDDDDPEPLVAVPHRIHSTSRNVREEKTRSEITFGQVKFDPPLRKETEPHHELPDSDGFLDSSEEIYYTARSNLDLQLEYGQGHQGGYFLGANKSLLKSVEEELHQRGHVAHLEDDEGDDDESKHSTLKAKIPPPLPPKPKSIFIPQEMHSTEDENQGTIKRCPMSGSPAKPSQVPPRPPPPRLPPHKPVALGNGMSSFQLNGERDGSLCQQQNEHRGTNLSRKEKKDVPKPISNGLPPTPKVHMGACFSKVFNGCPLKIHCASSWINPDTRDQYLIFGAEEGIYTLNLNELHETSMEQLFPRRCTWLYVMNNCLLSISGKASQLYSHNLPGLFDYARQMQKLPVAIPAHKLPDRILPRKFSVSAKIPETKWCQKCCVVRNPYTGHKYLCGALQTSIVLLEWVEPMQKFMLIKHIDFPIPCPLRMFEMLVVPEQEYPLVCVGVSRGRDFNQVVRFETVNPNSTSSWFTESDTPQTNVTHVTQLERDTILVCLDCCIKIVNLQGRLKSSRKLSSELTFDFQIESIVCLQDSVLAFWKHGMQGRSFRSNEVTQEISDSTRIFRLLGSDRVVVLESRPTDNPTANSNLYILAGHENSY

[3] = system: MAPKAPK2, MAPKAPK3; type: cell-based, human; details: 1 μM, MCF-7 Cells, Lys2
[4] = system: MER, TYRO3; type: cell-based, human; details: 1 μM; MCF-7 Cells; Activation Loop; KIYSGDYYR
[5] = target: T2, ITPK1 (Homo sapiens, UniProt Q13572); type: cell-based; details: 1 μM, MCF-7 Cells, ATP
T2 construct: endogenous in cells; host or cells: MCF7
T2 sequence (Q13572 1-414): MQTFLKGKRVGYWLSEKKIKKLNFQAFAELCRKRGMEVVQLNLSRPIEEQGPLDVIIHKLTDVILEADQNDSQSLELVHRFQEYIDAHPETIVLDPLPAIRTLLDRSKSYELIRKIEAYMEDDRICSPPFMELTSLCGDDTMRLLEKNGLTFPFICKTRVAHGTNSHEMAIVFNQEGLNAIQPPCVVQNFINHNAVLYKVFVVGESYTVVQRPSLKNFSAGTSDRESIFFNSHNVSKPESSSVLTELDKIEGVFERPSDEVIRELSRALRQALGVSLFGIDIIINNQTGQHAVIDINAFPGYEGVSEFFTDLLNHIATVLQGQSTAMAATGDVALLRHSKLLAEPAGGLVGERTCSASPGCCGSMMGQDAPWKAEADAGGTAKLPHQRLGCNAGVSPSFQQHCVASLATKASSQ

[6] = target: T3, MAP2K7 (Homo sapiens, UniProt O14733); type: cell-based; details: 1 μM; MCF-7 Cells; Lys2; DVKPSNILLDER
T3 construct: MCF7 cells were exposed to; endogenous in cells; host or cells: MCF7
T3 sequence (O14733 whole entry): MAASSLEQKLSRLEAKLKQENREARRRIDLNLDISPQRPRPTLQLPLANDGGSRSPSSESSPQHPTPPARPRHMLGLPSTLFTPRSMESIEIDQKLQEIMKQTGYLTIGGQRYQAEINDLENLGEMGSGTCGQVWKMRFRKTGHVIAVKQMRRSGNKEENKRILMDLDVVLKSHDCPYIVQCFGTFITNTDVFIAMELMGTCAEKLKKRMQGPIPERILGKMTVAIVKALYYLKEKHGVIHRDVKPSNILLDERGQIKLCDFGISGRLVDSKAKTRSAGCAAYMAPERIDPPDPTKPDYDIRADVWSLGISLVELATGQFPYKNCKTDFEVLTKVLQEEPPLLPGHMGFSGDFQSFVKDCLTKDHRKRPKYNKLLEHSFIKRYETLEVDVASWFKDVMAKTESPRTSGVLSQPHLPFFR

[7] = target: T4, DLK (Homo sapiens, UniProt Q12852); type: cell-based; details: 1 μM; MCF-7 Cells; Lys2; DLKSPNMLITYDDVVK
T4 construct: endogenous in cells; host or cells: MCF7
T4 sequence (Q12852 whole entry): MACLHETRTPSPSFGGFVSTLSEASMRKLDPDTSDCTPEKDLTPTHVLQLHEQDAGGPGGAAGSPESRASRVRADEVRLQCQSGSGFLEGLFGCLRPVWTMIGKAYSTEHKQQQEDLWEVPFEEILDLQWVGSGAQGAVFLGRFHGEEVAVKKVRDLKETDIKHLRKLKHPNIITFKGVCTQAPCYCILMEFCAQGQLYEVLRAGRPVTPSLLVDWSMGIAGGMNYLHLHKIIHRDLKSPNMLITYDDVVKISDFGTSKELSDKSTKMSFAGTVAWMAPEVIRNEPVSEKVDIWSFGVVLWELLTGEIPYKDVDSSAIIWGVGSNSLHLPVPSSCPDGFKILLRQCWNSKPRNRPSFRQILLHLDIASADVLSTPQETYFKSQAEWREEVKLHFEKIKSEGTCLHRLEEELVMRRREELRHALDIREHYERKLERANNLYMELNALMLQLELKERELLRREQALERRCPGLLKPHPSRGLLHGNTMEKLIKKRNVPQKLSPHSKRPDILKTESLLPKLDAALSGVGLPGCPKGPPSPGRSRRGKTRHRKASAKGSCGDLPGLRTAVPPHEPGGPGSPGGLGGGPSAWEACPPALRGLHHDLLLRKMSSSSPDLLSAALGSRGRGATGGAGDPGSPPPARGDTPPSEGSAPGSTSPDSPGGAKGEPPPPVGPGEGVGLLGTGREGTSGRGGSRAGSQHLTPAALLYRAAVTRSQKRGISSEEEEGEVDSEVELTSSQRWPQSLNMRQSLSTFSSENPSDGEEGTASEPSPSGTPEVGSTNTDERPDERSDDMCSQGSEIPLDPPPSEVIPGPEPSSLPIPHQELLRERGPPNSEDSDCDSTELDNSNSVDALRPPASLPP

[8] = system: AKT2, AKT3; type: cell-based, human; details: 1 μM, MCF-7 Cells, ATP Loop
[9] = target: T5, EGFR (Homo sapiens, UniProt P00533); type: cell-based; details: 1 μM, MCF-7 Cells
T5 construct: MCF7 cells were exposed to; endogenous in cells; host or cells: MCF7
T5 sequence (P00533 25-1210): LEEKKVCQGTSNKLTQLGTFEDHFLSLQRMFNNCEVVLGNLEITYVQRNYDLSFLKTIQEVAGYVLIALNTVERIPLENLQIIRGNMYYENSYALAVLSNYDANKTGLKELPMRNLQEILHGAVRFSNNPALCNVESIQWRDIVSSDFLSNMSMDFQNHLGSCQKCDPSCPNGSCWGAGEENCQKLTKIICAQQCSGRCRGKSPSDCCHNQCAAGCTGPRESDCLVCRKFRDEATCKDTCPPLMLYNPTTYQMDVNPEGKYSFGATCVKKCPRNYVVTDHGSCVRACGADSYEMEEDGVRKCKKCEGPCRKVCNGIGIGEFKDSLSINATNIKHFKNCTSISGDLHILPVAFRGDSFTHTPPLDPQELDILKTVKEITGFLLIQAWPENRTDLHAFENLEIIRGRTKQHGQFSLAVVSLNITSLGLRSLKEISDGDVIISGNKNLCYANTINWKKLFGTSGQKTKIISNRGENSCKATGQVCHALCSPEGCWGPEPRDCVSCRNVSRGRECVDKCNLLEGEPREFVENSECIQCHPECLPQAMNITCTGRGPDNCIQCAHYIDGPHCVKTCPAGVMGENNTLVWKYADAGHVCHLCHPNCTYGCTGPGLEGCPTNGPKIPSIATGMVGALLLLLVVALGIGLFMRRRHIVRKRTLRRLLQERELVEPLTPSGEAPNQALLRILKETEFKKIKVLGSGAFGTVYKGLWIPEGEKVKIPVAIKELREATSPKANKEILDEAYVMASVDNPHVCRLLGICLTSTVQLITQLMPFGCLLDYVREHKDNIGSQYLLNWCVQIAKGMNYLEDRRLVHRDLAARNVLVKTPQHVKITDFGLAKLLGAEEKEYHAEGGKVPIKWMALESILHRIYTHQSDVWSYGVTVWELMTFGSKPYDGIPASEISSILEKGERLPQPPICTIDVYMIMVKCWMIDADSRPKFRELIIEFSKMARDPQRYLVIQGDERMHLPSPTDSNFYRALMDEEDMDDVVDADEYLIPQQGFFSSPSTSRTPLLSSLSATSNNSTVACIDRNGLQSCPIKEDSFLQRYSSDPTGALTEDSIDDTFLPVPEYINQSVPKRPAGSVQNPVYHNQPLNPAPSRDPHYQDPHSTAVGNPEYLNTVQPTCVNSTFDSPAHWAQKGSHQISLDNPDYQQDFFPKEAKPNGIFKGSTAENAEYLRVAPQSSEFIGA

[10] = system: TAO1, TAO3; type: cell-based, human; details: 1 μM, MCF-7 Cells, Lys2
[11] = system: MST3, MST4, YSK1; type: cell-based, human; details: 1 μM, MCF-7 Cells, Activation Loop
[12] = system: CDK11, CDK8; type: cell-based, human; details: 1 μM, MCF-7 Cells, Lys2
[13] = system: FYN, SRC, YES; type: cell-based, human; details: 1 μM, MCF-7 Cells, Activation Loop
[14] = system: IKKe, TBK1; type: cell-based, human; details: 1 μM; MCF-7 Cells; Lys2; DIKPGNIMR
[15] = target: T6, JAK1 domain1 (Homo sapiens, UniProt P23458); type: cell-based; details: 1 μM; MCF-7 Cells; Activation Loop; QLASALSYLEDKDLVHGNVCTKNLLLAR
T6 construct: MCF7 cells were exposed to; endogenous in cells; host or cells: MCF7
T6 sequence (P23458 whole entry, the tested form may be a part): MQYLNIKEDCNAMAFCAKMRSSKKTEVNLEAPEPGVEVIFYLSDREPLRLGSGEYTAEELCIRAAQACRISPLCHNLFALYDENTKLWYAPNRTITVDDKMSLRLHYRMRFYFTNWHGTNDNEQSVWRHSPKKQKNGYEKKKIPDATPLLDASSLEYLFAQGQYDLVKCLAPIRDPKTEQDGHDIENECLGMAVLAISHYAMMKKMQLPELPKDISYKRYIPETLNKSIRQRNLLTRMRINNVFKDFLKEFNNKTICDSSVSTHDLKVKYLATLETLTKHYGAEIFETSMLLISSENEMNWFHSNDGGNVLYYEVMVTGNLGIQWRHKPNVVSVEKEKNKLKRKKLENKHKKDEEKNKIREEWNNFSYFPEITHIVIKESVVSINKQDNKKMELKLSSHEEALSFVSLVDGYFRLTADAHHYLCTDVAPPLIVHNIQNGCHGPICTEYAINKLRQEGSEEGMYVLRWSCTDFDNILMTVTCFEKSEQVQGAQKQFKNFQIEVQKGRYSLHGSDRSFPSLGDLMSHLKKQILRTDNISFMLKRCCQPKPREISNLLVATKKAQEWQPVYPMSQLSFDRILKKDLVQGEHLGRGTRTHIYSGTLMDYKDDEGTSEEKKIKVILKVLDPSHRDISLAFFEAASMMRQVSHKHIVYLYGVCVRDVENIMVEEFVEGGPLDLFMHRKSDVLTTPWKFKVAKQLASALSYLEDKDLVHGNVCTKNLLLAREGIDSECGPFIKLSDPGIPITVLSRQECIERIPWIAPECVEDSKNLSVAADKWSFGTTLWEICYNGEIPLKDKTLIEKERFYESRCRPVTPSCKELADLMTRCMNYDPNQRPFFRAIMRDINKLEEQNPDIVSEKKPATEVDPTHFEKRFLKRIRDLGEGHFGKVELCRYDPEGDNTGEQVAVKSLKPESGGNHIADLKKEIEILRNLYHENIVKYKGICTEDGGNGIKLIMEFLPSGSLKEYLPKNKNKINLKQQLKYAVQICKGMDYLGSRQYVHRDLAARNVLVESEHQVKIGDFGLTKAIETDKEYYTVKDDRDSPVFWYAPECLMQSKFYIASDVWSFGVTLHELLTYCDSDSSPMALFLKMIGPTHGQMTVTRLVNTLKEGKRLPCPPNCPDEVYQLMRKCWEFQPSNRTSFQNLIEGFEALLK

[16] = system: ABL, ARG; type: cell-based, human; details: 1 μM, MCF-7 Cells
[17] = system: MST4, YSK1; type: cell-based, human; details: 1 μM, MCF-7 Cells, Lys2
[18] = target: T7, ULK1 (Homo sapiens, UniProt O75385); type: cell-based; details: 1 μM; MCF-7 Cells; Lys2; DLKPQNILLSNPAGR
T7 construct: Briefly, MCF7 cells were exposed to; endogenous in cells; host or cells: MCF7
T7 sequence (O75385 whole entry): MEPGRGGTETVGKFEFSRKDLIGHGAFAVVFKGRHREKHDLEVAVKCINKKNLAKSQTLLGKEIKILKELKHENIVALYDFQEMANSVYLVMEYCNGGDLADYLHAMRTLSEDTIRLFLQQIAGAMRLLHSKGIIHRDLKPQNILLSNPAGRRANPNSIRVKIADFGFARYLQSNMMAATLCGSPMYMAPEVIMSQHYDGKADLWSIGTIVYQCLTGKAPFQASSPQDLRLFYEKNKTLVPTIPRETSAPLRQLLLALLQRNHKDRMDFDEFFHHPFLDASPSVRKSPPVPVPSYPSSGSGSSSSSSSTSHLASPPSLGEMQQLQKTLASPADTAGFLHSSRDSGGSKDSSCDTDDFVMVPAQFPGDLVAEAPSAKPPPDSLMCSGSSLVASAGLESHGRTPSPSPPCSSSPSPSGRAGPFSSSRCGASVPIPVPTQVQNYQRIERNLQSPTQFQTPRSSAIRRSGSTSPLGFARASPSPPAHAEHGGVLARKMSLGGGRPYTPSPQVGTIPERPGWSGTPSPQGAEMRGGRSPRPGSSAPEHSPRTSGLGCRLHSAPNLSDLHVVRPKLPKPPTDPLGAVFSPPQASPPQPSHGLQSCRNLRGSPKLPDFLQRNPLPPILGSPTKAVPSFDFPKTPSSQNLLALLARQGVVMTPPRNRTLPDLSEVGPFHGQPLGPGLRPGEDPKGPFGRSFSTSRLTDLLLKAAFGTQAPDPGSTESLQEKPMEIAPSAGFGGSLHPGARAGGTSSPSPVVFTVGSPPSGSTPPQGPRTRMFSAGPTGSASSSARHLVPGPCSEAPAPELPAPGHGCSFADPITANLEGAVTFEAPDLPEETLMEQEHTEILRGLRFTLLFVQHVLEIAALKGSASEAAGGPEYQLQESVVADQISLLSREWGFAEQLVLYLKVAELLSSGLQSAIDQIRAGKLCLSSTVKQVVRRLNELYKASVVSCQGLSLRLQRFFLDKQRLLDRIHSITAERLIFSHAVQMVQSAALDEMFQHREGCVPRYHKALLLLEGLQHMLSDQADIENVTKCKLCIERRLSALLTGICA

[19] = system: MST1, MST2; type: cell-based, human; details: 1 μM, MCF-7 Cells, Lys2
[20] = system: MAP3K15, MAP3K5, MAP3K6; type: cell-based, human; details: 1 μM; MCF-7 Cells; Lys1; IAIKEIPER
[21] = ESIFFNSHNVSKPESSSVLTELDKIEGVFERPSDEVIR

CO[C@H]1C[C@@H]2CC[C@@H](C)[C@@](O)(O2)C(=O)C(=O)N2CCCC[C@H]2C(=O)O[C@H]([C@H](C)C[C@@H]2CC[C@@H](OC(=O)NCCOCCOCCOCCOCCOCCOCCOCCOCCC(=O)NCCS(=O)(=O)c3ccc(C(=O)N4CCOc5ccc(-c6ccc(N)nc6)cc5C4)c(C)c3F)[C@H](OC)C2)C[C@@H](O)[C@H](C)/C=C(\C)[C@@H](O)[C@@H](OC)C(=O)[C@H](C)C[C@H](C)/C=C/C=C/C=C/1C [compound 40]
KiNativ Kinase Panel Data ([1]; DLKAENLLLDADMNIK): 15.7
KiNativ Kinase Panel Data ([2]; Lys1, NVNTGELAAIKVIK): -19.2
KiNativ Kinase Panel Data ([2]; Lys2, DIKGANILLTDNGHVK): 69.9
KiNativ Kinase Panel Data ([3]; DVKPENLLYTSK): -27.1
KiNativ Kinase Panel Data [4]: 7.1
KiNativ Kinase Panel Data [5, 21]: -9.6
KiNativ Kinase Panel Data ([5]; NFSAGTSDRESIFFNSHNVSKPESSSVLTELDKIEGVFERPSDEVIR): -12.4
KiNativ Kinase Panel Data [6]: -14.8
KiNativ Kinase Panel Data [7]: -20.3
KiNativ Kinase Panel Data ([8]; GTFGKVILVR): -101.1
KiNativ Kinase Panel Data ([9]; Activation Loop, LLGAEEKEYHAEGGKVPIK): -40.0
KiNativ Kinase Panel Data ([9]; Lys1, IPVAIKELR): -27.8
KiNativ Kinase Panel Data ([10]; DIKAGNILLTEPGQVK): -29.7
KiNativ Kinase Panel Data ([11]; LADFGVAGQLTDTQIKR): 20.4
KiNativ Kinase Panel Data ([12]; DLKPANILVMGEGPER): -19.1
KiNativ Kinase Panel Data ([13]; QGAKFPIKWTAPEAALYGR): -28.5
KiNativ Kinase Panel Data [14]: -21.1
KiNativ Kinase Panel Data [15]: -1.7
KiNativ Kinase Panel Data ([16]; Activation Loop, LMTGDTYTAHAGAKFPIK): 16.3
KiNativ Kinase Panel Data ([16]; Lys1, YSLTVAVKTLKEDTMEVEEFLK): -25.3
KiNativ Kinase Panel Data ([17]; DIKAANVLLSEQGDVK): -10.1
KiNativ Kinase Panel Data [18]: -15.4
KiNativ Kinase Panel Data ([19]; DIKAGNILLNTEGHAK): -6.5
KiNativ Kinase Panel Data [20]: -4.5

CO[C@H]1C[C@@H]2CC[C@@H](C)[C@@](O)(O2)C(=O)C(=O)N2CCCC[C@H]2C(=O)O[C@H]([C@H](C)C[C@@H]2CC[C@@H](OC(=O)NCCOCCOCCOCCOCCOCCOCCOCCOCCC(=O)N3CCc4cc(Cn5nc(-c6ccc7oc(N)nc7c6)c6c(N)ncnc65)ccc4C3)[C@H](OC)C2)C[C@@H](O)[C@H](C)/C=C(\C)[C@@H](O)[C@@H](OC)C(=O)[C@H](C)C[C@H](C)/C=C/C=C/C=C/1C [compound 38]
KiNativ Kinase Panel Data ([1]; […]): -0.4
KiNativ Kinase Panel Data ([2]; Lys1, NVNTGELAAIKVIK): 12.2
KiNativ Kinase Panel Data ([2]; Lys2, DIKGANILLTDNGHVK): -6.9
KiNativ Kinase Panel Data ([3]; […]): -19.9
KiNativ Kinase Panel Data [4]: -0.7
KiNativ Kinase Panel Data [5, 21]: 6.5
KiNativ Kinase Panel Data ([5]; […]): 22.4
KiNativ Kinase Panel Data [6]: 20.9
KiNativ Kinase Panel Data [7]: -43.9
KiNativ Kinase Panel Data ([8]; […]): -13.5
KiNativ Kinase Panel Data ([9]; Activation Loop, […]): -1.8
KiNativ Kinase Panel Data ([9]; Lys1, IPVAIKELR): -7.4
KiNativ Kinase Panel Data ([10]; […]): -1.7
KiNativ Kinase Panel Data ([11]; […]): 12.4
KiNativ Kinase Panel Data ([12]; […]): -39.0
KiNativ Kinase Panel Data ([13]; […]): -6.3
KiNativ Kinase Panel Data [14]: -33.9
KiNativ Kinase Panel Data [15]: 0.8
KiNativ Kinase Panel Data ([16]; Activation Loop, […]): -3.4
KiNativ Kinase Panel Data ([16]; Lys1, […]): -1.3
KiNativ Kinase Panel Data ([17]; […]): 10.5
KiNativ Kinase Panel Data [18]: -11.7
KiNativ Kinase Panel Data ([19]; […]): 3.0
KiNativ Kinase Panel Data [20]: 24.5
